Patent US20250109118A1, “HETEROCYCLIC COMPOUNDS AS SHP2 INHIBITORS, COMPOSITIONS COMPRISING THE HETEROCYCLIC COMPOUND, AND METHODS OF USE THEREOF” (JS INNOMED HOLDINGS LTD., priority 2021, published 2025)

Assays:
SHP2 (PTPN11/SHP2-FL) = target: T1, SHP2 (PTPN11/SHP2-FL) (Homo sapiens, UniProt Q06124); assay: SHP2 biochemical assay (DiFMUP prompt fluorescence); conditions: 0.5 nM SHP2, 0.35 μM activating peptide, DiFMUP 100 μM; read-out: SHP2 bichemical activity (IC50)
T1 construct: SHP2 (PTPN11/SHP2-FL, RBC produced, no cat #); purchased RBC no cat #
T1 sequence (Q06124 1-593): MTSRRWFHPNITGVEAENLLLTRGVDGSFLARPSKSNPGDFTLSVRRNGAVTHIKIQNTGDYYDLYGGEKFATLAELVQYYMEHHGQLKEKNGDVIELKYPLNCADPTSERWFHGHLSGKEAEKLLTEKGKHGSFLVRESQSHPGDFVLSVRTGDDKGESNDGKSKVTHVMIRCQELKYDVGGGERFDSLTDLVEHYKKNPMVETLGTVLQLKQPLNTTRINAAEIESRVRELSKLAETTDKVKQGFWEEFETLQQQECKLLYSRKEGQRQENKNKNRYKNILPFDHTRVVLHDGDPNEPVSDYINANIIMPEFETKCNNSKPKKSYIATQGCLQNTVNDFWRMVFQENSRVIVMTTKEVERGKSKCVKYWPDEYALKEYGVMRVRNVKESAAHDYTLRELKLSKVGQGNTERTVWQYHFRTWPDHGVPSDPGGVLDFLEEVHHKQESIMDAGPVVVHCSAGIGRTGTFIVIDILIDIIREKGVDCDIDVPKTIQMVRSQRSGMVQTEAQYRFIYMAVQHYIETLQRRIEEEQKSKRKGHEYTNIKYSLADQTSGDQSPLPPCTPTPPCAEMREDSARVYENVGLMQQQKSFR
Method: SHP2 is allosterically activated through binding of bis-tyro syiphorphorylated peptides to its Src Homology 2 (SH2) domains. The latter activation step leads to the release of the auto-inhibitory interface of SHP2, which in turn renders the SHP2 PTP active and available for substrate recognition and reaction catalysis. The catalytic activity of SHP2 was monitored using the surrogate substrate DiFMUP in a prompt fluorescence assay format. Specifically, the phosphatase reactions were performed at room temperature in 384-well black polystyrene plate, flat bottom, low flange, non-binding surface (Corning, Cat #3575) using a final reaction volume of 20 μL and the following assay buffer conditions: 60 mM HEPES, pH 7.2, 75 mM NaCl, 75 mM KCl, 1 mM EDTA, 0.01% Brij-35, 5 mM DTT, and 10% DMSO (final). The inhibition of SHP2 from the tested compounds (final concentrations varying from 0.003-100 μM) was monitored using an assay in which 0.5 nM of SHP2 (PTPN11/SHP2-FL, RBC produced, no cat #) was incubated with 0.35 μM of the peptide H2NLN(pY)IDLDLV(dPEG8)LST(pY)ASINFQK-amide. After 20 minutes of incubation at room temperature, the surrogate substrate DiFMUP (6,8-difluoro-7-hydroxy-4-methylcoumarin, Invitrogen, cat #D6567, 100 μM final concentration) was added to the reaction. The fluorescence signal was monitored using a microplate reader (Envision, Perkin-Elmer) using excitation and emission wavelengths of 355 nm and 460 nm, respectively. The inhibitor dose response curves were analyzed using normalized IC50 regression curve fitting with control based normalization.
The IC50 values of for Compounds disclosed are listed in Table 2, A: ≤10 nM; B: >10 nM and ≤100 nM; C: >100 nM and ≤1 uM; and D: >1 μM.

MiaPaCa-2 cells = assay: MiaPaCa-2 Cell proliferation assay in 3D culture (CCK8); assay type: cell-based; conditions: Homo sapiens, MIA PaCa-2, 120 h; 3D spheroid culture, 5 days with compound, CCK8 readout
Summary of the method: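 Cells grown as spheroids (2500/well, ultra-low attachment, 10% FBS) for 24 h, then exposed 5 days to ten 3-fold compound dilutions at 0.1% DMSO. Viability by CCK8/WST-8, 1.5 h at 37 °C, absorbance 450 nm; IC50 from triplicates.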

Row | SMILES | IC50 (SHP2 (PTPN11/SHP2-FL)) [nM] | IC50 (MiaPaCa-2 cells) [nM]
1 | CC1(N)CCN(c2cnc(Sc3cccc(NC(=O)NS(=O)(=O)c4ccccc4)c3Cl)cn2)CC1 [Example 1, N-((3-((5-(4-amino-4-methylpiperidin-1-yl)pyrazin-2-yl)thio)-2-chlorophenyl)carbamoyl)benzenesulfonamide] | 10 to 100 | ≤ 500
2 | CC1(CN)CCN(c2cnc(Sc3cccc(NC(=O)NS(=O)(=O)c4ccccc4)c3Cl)cn2)CC1 [Example 2, N-((3-((5-(4-(aminomethyl)-4-methylpiperidin-1-yl)pyrazin-2-yl)thio)-2-chlorophenyl)carbamoyl)benzenesulfonamide] | ≤ 10 | ≤ 500
3 | CC1(N)CCN(c2cnc(Sc3cccc(C(=O)NS(=O)(=O)c4ccccc4)c3Cl)cn2)CC1 [Example 3, 3-((5-(4-amino-4-methylpiperidin-1-yl)pyrazin-2-yl)thio)-2-chloro-N-(phenylsulfonyl)benzamide] | ≤ 10 | 500 to 5000
4 | CC1(N)CCN(c2cnc(Sc3cccc(NC(=O)NS(=O)(=O)c4ccccc4)c3Cl)c(N)n2)CC1 [Example 4, N-((3-((3-amino-5-(4-amino-4-methylpiperidin-1-yl)pyrazin-2-yl)thio)-2-chlorophenyl)carbamoyl)benzenesulfonamide] | ≤ 10 | ≤ 500
5 | CC1(CN)CCN(c2cnc(Sc3cccc(C(=O)NS(=O)(=O)c4ccccc4)c3Cl)c(N)n2)CC1 [Example 5, 3-((3-amino-5-(4-(aminomethyl)-4-methylpiperidin-1-yl)pyrazin-2-yl)thio)-2-chloro-N-(phenylsulfonyl)benzamide] | ≤ 10 | ≤ 500
6 | CC1(CN)CCN(c2cnc(Sc3cccc(S(=O)(=O)NC(=O)c4ccccc4)c3Cl)cn2)CC1 [Example 7, N-((3-((5-(4-(aminomethyl)-4-methylpiperidin-1-yl)pyrazin-2-yl)thio)-2-chlorophenyl)sulfonyl)benzamide] | 10 to 100 | 500 to 5000
7 | CC1(N)CCN(c2cnc(Sc3cccc(S(=O)(=O)NC(=O)c4ccccc4)c3Cl)c(N)n2)CC1 [Example 8, N-((3-((3-amino-5-(4-amino-4-methylpiperidin-1-yl)pyrazin-2-yl)thio)-2-chlorophenyl)sulfonyl)benzamide] | 10 to 100 | 5000 to 50000
8 | CC1(N)CCN(c2cnc(Sc3cccc(C(=O)NS(=O)(=O)C4CC4)c3Cl)cn2)CC1 [Example 18, 3-((5-(4-amino-4-methylpiperidin-1-yl)pyrazin-2-yl)thio)-2-chloro-N-(cyclopropylsulfonyl)benzamide] | 10 to 100 | 5000 to 50000
9 | CC1(N)CCN(c2cnc(Sc3cccc(C(=O)NS(C)(=O)=O)c3Cl)cn2)CC1 [Example 19, 3-((5-(4-amino-4-methylpiperidin-1-yl)pyrazin-2-yl)thio)-2-chloro-N-(methylsulfonyl)benzamide] | 10 to 100 | 5000 to 50000
10 | CC1(N)CCN(c2cnc(Sc3cccc(C(=O)NS(=O)(=O)C4CCCCC4)c3Cl)cn2)CC1 [Example 20, 3-((5-(4-amino-4-methylpiperidin-1-yl)pyrazin-2-yl)thio)-2-chloro-N-(cyclohexylsulfonyl)benzamide] | 10 to 100 | 5000 to 50000
11 | CC1(CN)CCN(c2cnc(Sc3cccc(C(=O)NS(=O)(=O)c4ccccc4)c3Cl)cn2)CC1 [Example 21, 3-((5-(4-(aminomethyl)-4-methylpiperidin-1-yl)pyrazin-2-yl)thio)-2-chloro-N-(phenylsulfonyl)benzamide] | ≤ 10 | ≤ 500
12 | CC1(CN)CCN(c2cnc(Sc3cccc(C(=O)NS(=O)(=O)c4ccccn4)c3Cl)cn2)CC1 [Example 22, 3-((5-(4-(aminomethyl)-4-methylpiperidin-1-yl)pyrazin-2-yl)thio)-2-chloro-N-(pyridin-2-ylsulfonyl)benzamide] | ≤ 10 | ≤ 500
13 | CC1(CN)CCN(c2cnc(Sc3cccc(C(=O)NS(=O)(=O)c4ccccc4F)c3Cl)cn2)CC1 [Example 23, 3-((5-(4-(aminomethyl)-4-methylpiperidin-1-yl)pyrazin-2-yl)thio)-2-chloro-N-((2-fluorophenyl)sulfonyl)benzamide] | ≤ 10 | 500 to 5000
14 | CC1(CN)CCN(c2cnc(Sc3cccc(C(=O)NS(=O)(=O)c4cccnc4)c3Cl)cn2)CC1 [Example 24, 3-((5-(4-(aminomethyl)-4-methylpiperidin-1-yl)pyrazin-2-yl)thio)-2-chloro-N-(pyridin-3-ylsulfonyl)benzamide] | ≤ 10 | 500 to 5000
15 | CC1(CN)CCN(c2cnc(Sc3cccc(C(=O)NS(=O)(=O)C4CC4)c3Cl)cn2)CC1 [Example 25, 3-((5-(4-(aminomethyl)-4-methylpiperidin-1-yl)pyrazin-2-yl)thio)-2-chloro-N-(cyclopropylsulfonyl)benzamide] | ≤ 10 | ≤ 500
16 | CC1(CN)CCN(c2cnc(Sc3cccc(C(=O)NS(C)(=O)=O)c3Cl)cn2)CC1 [Example 26, 3-((5-(4-(aminomethyl)-4-methylpiperidin-1-yl)pyrazin-2-yl)thio)-2-chloro-N-(methylsulfonyl)benzamide] | ≤ 10 | ≤ 500
17 | CC1(CN)CCN(c2cnc(Sc3cccc(C(=O)NS(=O)(=O)C4CCCCC4)c3Cl)cn2)CC1 [Example 27, 3-((5-(4-(aminomethyl)-4-methylpiperidin-1-yl)pyrazin-2-yl)thio)-2-chloro-N-(cyclohexylsulfonyl)benzamide] | ≤ 10 | ≤ 500
18 | CC1(CN)CCN(c2cnc(Sc3cccc(C(=O)NS(=O)(=O)c4ccncc4)c3Cl)cn2)CC1 [Example 28, 3-((5-(4-(aminomethyl)-4-methylpiperidin-1-yl)pyrazin-2-yl)thio)-2-chloro-N-(pyridin-4-ylsulfonyl)benzamide] | ≤ 10 | 500 to 5000
19 | CC1(CN)CCN(c2cnc(Sc3cccc(NC(=O)NS(C)(=O)=O)c3Cl)cn2)CC1 [Example 29, N-((3-((5-(4-(aminomethyl)-4-methylpiperidin-1-yl)pyrazin-2-yl)thio)-2-chlorophenyl)carbamoyl)methanesulfonamide] | ≤ 10 | ≤ 500
20 | CC1(CN)CCN(c2cnc(Sc3cccc(C(=O)NS(=O)(=O)C4CCCC4)c3Cl)cn2)CC1 [Example 30, 3-((5-(4-(aminomethyl)-4-methylpiperidin-1-yl)pyrazin-2-yl)thio)-2-chloro-N-(cyclopentylsulfonyl)benzamide] | ≤ 10 | 500 to 5000
21 | Nc1nc(N2CCC3(CC2)COC[C@H]3N)cnc1Sc1cccc(C(=O)NS(=O)(=O)c2ccccc2)c1Cl [Example 31, (S)-3-((3-amino-5-(4-amino-2-oxa-8-azaspiro[4.5]decan-8-yl)pyrazin-2-yl)thio)-2-chloro-N-(phenylsulfonyl)benzamide] | ≤ 10 | ≤ 500
22 | CC1(CN)CCN(c2cnc(Sc3cccc(NC(=O)NS(=O)(=O)C4CC4)c3Cl)cn2)CC1 [Example 32, N-((3-((5-(4-(aminomethyl)-4-methylpiperidin-1-yl)pyrazin-2-yl)thio)-2-chlorophenyl)carbamoyl)cyclopropanesulfonamide] | ≤ 10 | ≤ 500
23 | CC1(N)CCN(c2cnc(Sc3cccc(S(=O)(=O)NC(=O)c4ccccc4)c3Cl)cn2)CC1 [Example 33, N-((3-((5-(4-amino-4-methylpiperidin-1-yl)pyrazin-2-yl)thio)-2-chlorophenyl)sulfonyl)benzamide] | 10 to 100 | ≤ 500
